Measured values from ChEMBL document CHEMBL5352493, “Dual inhibitors of ASK1 and PDK1 kinases: Design, synthesis, molecular docking and mechanism studies of N-benzyl pyridine-2-one containing derivatives as anti-fibrotic agents” (Eur J Med Chem, 2023).
Active and inactive are the calls of the source. No cut-off for these calls is given here.

Tests used:
HFL1 [1] = assay: Induction of apoptosis in HLF1 cells assessed as early apoptotic cells at 10 uM incubated for 24 hrs measured by annexinV-FITC/PI based flow cytometric analysis (reference value: 11.6%); assay type: functional, Homo sapiens
HFL1 [2] = assay: Induction of apoptosis in HLF1 cells assessed as viable cells at 15 uM incubated for 24 hrs measured by annexinV-FITC/PI based flow cytometric analysis (reference value: 88.3%); assay type: functional; details: Homo sapiens, read-out: Activity
HFL1 [3] = assay: Induction of apoptosis in HLF1 cells assessed as viable cells at 5 uM incubated for 24 hrs measured by annexinV-FITC/PI based flow cytometric analysis (reference value: 88.3%); assay type: functional; details: Homo sapiens, read-out: Activity
HFL1 [4] = assay: Downregulation of phosphorylated Akt in TGF-beta1 induced HFL1 cells at 10 microM for 24 hrs by Western blotting analysis; assay type: functional, cell-based; details: Homo sapiens
HFL1 [5] = assay: Induction of apoptosis in HLF1 cells assessed as necrotic cells at 15 uM incubated for 24 hrs measured by annexinV-FITC/PI based flow cytometric analysis (reference value: 0%); assay type: functional, Homo sapiens
HFL1 [6] = assay: Induction of apoptosis in HLF1 cells assessed as viable cells at 10 uM incubated for 24 hrs measured by annexinV-FITC/PI based flow cytometric analysis (reference value: 88.3%); assay type: functional; details: Homo sapiens, read-out: Activity
HFL1 [7] = assay: Downregulation of phosphorylated JNK in TGF-beta1 induced HFL1 cells at 5 to 10 uM for 24 hrs by Western blotting analysis; assay type: functional, cell-based; details: Homo sapiens, dose 5-10 µM
HFL1 [8] = assay: Induction of apoptosis in HLF1 cells assessed as late apoptotic cells at 5 uM incubated for 24 hrs measured by annexinV-FITC/PI based flow cytometric analysis (reference value: 0.08%); assay type: functional, Homo sapiens
HFL1 [9] = assay: Downregulation of phosphorylated p38 in TGF-beta1 induced HFL1 cells at 5 to 10 uM for 24 hrs by Western blotting analysis; assay type: functional, cell-based; details: Homo sapiens, dose 5-10 µM
[10] = Antiproliferative against rat HSC-T6 cells measured after 48 hrs by CCK8 assay; assay type: toxicity, cell-based
HFL1 [11] = assay: Antifibrotic activity in TGF-beta1 induced HLF1 cells assessed as decrease in collagen-I expression level measured at 5 to 10 uM after 24 hrs by Western blotting analysis; assay type: functional, cell-based; details: Homo sapiens, dose 5-10 µM
[12] = Antiproliferative against human BEAS-2B cells measured after 48 hrs by CCK8 assay; assay type: toxicity, cell-based
HFL1 [13] = assay: Antifibrotic activity in TGF-beta1 induced HLF1 cells assessed as decrease in phosphorylated smad2 level measured at 5 to 10 uM after 24 hrs by Western blotting analysis; assay type: functional, cell-based; details: Homo sapiens, dose 5-10 µM
HFL1 [14] = assay: Induction of apoptosis in HLF1 cells assessed as decrease in antiapoptotic Bcl-2 protein at 5 to 10 uM for 24 hrs by Western blotting analysis; assay type: functional, cell-based; details: Homo sapiens, dose 5-10 µM
HFL1 [15] = assay: Induction of apoptosis in HLF1 cells assessed as necrotic cells at 10 uM incubated for 24 hrs measured by annexinV-FITC/PI based flow cytometric analysis (reference value: 0%); assay type: functional, Homo sapiens
HFL1 [16] = assay: Induction of apoptosis in HLF1 cells assessed as early apoptotic cells at 5 uM incubated for 24 hrs measured by annexinV-FITC/PI based flow cytometric analysis (reference value: 11.6%); assay type: functional, Homo sapiens
HFL1 [17] = assay: Downregulation of phosphorylated ASK1 in TGF-beta1 induced HFL1 cells at 5 to 10 uM for 24 hrs by Western blotting analysis; assay type: functional, cell-based; details: Homo sapiens, dose 5-10 µM
HFL1 [18] = assay: Antifibrotic activity in TGF-beta1 induced HLF1 cells assessed as decrease in phosphorylated smad3 level measured at 5 to 10 uM after 24 hrs by Western blotting analysis; assay type: functional, cell-based; details: Homo sapiens, dose 5-10 µM
HFL1 [19] = assay: Induction of apoptosis in HLF1 cells assessed as late apoptotic cells at 10 uM incubated for 24 hrs measured by annexinV-FITC/PI based flow cytometric analysis (reference value: 0.08%); assay type: functional, Homo sapiens
HFL1 [20] = assay: Induction of apoptosis in HLF1 cells assessed as necrotic cells at 5 uM incubated for 24 hrs measured by annexinV-FITC/PI based flow cytometric analysis (reference value: 0%); assay type: functional, Homo sapiens
[21] = molecular target: T1, Mitogen-activated protein kinase kinase kinase 5 (Homo sapiens, UniProt Q99683); assay: Inhibition of human recombinant ASK1 using MBP as substrate preincubated for 1 hr followed by reagent addition incubated for 40 mins by ATP-Glo kinase assay
T1 sequence (Q99683 whole entry): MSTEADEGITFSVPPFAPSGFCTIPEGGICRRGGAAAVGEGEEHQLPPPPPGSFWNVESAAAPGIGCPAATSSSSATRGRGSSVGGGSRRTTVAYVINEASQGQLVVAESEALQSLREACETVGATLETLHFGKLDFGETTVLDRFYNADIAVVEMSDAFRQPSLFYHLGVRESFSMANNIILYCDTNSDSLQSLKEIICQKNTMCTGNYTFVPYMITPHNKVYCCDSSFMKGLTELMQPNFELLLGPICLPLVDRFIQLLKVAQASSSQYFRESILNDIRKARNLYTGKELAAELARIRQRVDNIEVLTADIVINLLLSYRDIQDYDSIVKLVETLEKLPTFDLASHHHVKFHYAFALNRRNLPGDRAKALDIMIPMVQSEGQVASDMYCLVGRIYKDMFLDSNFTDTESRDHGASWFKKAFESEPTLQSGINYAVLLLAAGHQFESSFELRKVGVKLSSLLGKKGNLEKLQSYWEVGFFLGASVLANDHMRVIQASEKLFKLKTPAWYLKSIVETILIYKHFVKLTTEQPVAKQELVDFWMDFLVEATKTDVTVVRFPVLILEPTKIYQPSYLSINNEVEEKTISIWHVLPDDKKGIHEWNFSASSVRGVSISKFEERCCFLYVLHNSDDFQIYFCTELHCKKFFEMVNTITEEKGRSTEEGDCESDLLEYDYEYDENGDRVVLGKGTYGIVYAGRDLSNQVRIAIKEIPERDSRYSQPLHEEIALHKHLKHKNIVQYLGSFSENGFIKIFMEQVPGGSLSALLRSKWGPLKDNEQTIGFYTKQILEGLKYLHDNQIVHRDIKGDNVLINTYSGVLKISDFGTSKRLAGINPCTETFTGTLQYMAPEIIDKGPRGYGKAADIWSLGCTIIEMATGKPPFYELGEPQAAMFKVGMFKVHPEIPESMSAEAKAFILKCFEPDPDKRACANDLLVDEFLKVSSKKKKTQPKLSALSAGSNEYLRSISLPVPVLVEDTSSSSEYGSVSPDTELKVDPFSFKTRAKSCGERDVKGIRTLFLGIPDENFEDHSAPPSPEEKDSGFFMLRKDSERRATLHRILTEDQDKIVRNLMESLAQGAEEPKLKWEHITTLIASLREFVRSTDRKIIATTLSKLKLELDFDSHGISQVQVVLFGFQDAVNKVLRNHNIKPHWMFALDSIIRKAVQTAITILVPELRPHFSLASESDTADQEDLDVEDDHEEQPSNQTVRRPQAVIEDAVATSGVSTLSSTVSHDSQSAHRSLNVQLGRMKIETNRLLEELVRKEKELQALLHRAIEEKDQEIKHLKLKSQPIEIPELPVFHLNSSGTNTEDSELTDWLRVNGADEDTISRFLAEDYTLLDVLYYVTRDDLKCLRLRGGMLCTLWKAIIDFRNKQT

HFL1 [22] = assay: Induction of apoptosis in HLF1 cells assessed as early apoptotic cells at 15 uM incubated for 24 hrs measured by annexinV-FITC/PI based flow cytometric analysis (reference value: 11.6%); assay type: functional, Homo sapiens
HFL1 [23] = assay: Antifibrotic activity in TGF-beta1 induced HLF1 cells assessed as decrease in alpha SMA expression level measured at 5 to 10 uM after 24 hrs by Western blotting analysis; assay type: functional, cell-based; details: Homo sapiens, dose 5-10 µM
[24] = Antiproliferative against HLF1 cells measured after 48 hrs by CCK8 assay; assay type: toxicity, cell-based; details: human, HFL1 cells (description prints HLF1)
[25] = Antiproliferative against rat NRK-49F cells measured after 48 hrs by CCK8 assay; assay type: toxicity, cell-based
HFL1 [26] = assay: Induction of apoptosis in HLF1 cells assessed as late apoptotic cells at 15 uM incubated for 24 hrs measured by annexinV-FITC/PI based flow cytometric analysis (reference value: 0.08%); assay type: functional, Homo sapiens
HFL1 [27] = assay: Downregulation of phosphorylated PDK1 in TGF-beta1 induced HFL1 cells at 5 to 10 microM for 24 hrs by Western blotting analysis; assay type: functional, cell-based; details: Homo sapiens, dose 5-10 µM

## CC(C)n1cc(-c2cc(C(=O)Nc3cccc(-c4nncn4C4CC4)n3)c(=O)n(Cc3ccccc3F)c2)cn1
HFL1 [1]
  Activity: 25.6%
HFL1 [2]
  viability at 15 µM: 69.9%
HFL1 [3]
  viability at 5 µM: 80.5%
HFL1 [4]
  Activity: Active
HFL1 [5]
  Activity: 0%
HFL1 [6]
  viability at 10 µM: 74.3%
HFL1 [7]
  Activity: Active
HFL1 [8]
  Activity: 0.092%
HFL1 [9]
  Activity: Active
[10]
  IC50 at 48 h: 25 µM
HFL1 [11]
  Activity: Dose-Dependent Effect
[12]
  IC50 at 48 h: 33 µM
HFL1 [13]
  Activity: Active
HFL1 [14]
  Activity: Active
HFL1 [15]
  Activity: 0%
HFL1 [16]
  Activity: 19.4%
HFL1 [17]
  Activity: Active
HFL1 [18]
  Activity: Active
HFL1 [19]
  Activity: 0.034%
HFL1 [20]
  Activity: 0%
[21]
  IC50: 0.00913 µM
HFL1 [22]
  Activity: 30%
HFL1 [23]
  Activity: Dose-Dependent Effect
[24]
  IC50 at 48 h: 9.2 µM
[25]
  IC50 at 48 h: 14.8 µM
HFL1 [26]
  Activity: 0.069%
HFL1 [27]
  Activity: Dose-Dependent Effect
